Structures can show the parent of a compound that is named as a salt.
Assays:
[1] = target: native histamine H3 receptor (Rattus norvegicus, UniProt Q9QYN8); experiment: in vitro affinity assay on native histamine H3 receptor, [3H]-N-α-methylhistamine binding, adult rat brain membrane preparation; conditions: rat brain membranes, read-out: Ki with respect to H3 receptors
Description: More particularly, the compounds of the invention are histamine H3-receptor antagonists. H3 receptors are known to those skilled in the art and their advantage in therapeutics has been described in the literature (“Histamine H3 receptor antagonists” Exp. Opinion Ther. Patents (2000) 10 (7):1045-1055). Thus, the compounds of the invention of formula I were subjected to an in vitro affinity assay on the native histamine H3 receptor in an adult rat brain membrane preparation, by specific binding of [^3H]-N-α-methylhistamine to this receptor, according to the methods described by A. Korte et al., in Biochem. Biophys. Res. Commun. 168, 979-986 (1990) and by R. E. West Jr. et al., in Mol. Pharmacol. 38, 610-613 (1990).

[2] = target: T1, human histamine H3 receptor transfected into CHO cells (Homo sapiens, UniProt Q9Y5N1); experiment: cAMP formation assay, inhibition of R-α-methylhistamine agonism, CHO cells (EIA kit); type: cell-based; conditions: human H3 in CHO cells, EIA kit (Amersham)
T1 construct: expressed in transfected cells; host or cells: CHO cells
Protocol: The compounds of the invention of formula I were also subjected to a cAMP formation assay, on the human histamine H3 receptor transfected into CHO cells, by inhibition of the agonism caused by the specific binding of R-α-methylhistamine to this receptor, according to the methods described by T. W. Lovenberg et al., in J. Pharmacol. Exp. Ther. 293, 771-778 (2000).
By way of example, compound 15, included in Table 1, has an IC50<10 nM, using an EIA kit (Amersham) to measure cAMP formation, on the human histamine H3 receptor transfected into CHO cells, by inhibition of the agonism caused by the specific binding of R-α-methylhistamine to this receptor.

food intake = food intake in rats fasting for 24 h; type: in vivo, Wistar rats; conditions: 10 mg/kg i.p., during the first hour after administration, rats fasted 24 h
Protocol: Furthermore, the compounds of the invention of formula I were subjected to in vivo tests showing their ability to reduce food intake in rats fasting for 24 h.
The experiments were carried out on Wistar rats. The rats were placed individually in transparent plastic cages 48×26, 5×21.5 cm. These cages were placed in a room insulated against any noise, at a temperature of 20 to 22° C., with a light cycle from 7 o'clock in the morning to 7 o'clock in the evening, the rats having free access to water and to the food.
Before the experiment was carried out, the rats were made to fast for 24 h, with access, however, to water ad libitum. On the day of the experiment, the carrier or the compound according to the present invention was administered i.p. or p.o., 15 or 30 minutes before a known amount of food (30 g) was made available.
Each hour, for 6 hours, the amount of food ingested by the rat was measured.

native histamine H3 receptor, sequence (Q9QYN8 1-397 isoform Q9QYN8-3): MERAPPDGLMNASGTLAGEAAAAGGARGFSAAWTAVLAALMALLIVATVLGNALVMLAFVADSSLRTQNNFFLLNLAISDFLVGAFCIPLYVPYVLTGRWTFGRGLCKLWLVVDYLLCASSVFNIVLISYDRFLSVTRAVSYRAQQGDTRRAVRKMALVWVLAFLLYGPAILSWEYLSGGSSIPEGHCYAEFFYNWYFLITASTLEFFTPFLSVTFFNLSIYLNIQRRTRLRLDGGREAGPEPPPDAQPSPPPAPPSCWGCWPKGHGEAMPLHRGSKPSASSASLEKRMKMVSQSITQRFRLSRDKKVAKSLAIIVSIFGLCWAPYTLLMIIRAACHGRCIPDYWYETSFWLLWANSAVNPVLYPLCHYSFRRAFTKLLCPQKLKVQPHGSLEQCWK
T1 sequence (Q9Y5N1 whole entry): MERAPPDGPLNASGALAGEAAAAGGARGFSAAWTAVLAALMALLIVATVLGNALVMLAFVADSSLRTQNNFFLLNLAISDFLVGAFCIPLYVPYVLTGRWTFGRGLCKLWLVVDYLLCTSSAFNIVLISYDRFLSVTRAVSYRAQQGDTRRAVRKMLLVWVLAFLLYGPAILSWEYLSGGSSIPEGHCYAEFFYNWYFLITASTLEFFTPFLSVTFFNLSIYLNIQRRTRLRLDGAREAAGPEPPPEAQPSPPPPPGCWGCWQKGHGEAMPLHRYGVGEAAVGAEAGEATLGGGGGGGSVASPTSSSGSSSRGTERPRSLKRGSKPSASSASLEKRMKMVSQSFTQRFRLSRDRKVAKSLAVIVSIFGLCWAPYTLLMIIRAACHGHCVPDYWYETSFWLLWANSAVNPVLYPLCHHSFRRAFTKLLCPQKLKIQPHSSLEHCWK

SMILES | melting point [°C] | also measured
CN(C)CCCNS(=O)(=O)c1ccc2c(c1)CNCC2 (as salt: hydrochloride) | 230 to 234 | –
O=S(=O)(NCCCN1CC=CCC1)c1ccc2c(c1)CNCC2 (as salt: hydrochloride) [compound 9, N-[3-(3,6-dihydropyridin-1(2H)-yl)propyl]-1,2,3,4-tetrahydroisoquinoline-7-sulfonamide] | > 250 | –
O=S(=O)(NCCCN1CC=CC1)c1ccc2c(c1)CNCC2 (as salt: hydrochloride) [compound 13, N-[3-(2,5-dihydro-1H-pyrrol-1-yl)propyl]-1,2,3,4-tetrahydroisoquinoline-7-sulfonamide] | 228 to 231 | –
O=S(=O)(NCCCN1CCCC1)c1ccc2c(c1)CNCC2 (as salt: hydrochloride) [compound 18, N-(3-pyrrolidin-1-ylpropyl)-1,2,3,4-tetrahydroisoquinoline-7-sulfonamide] | 237 to 241 | –
O=S(=O)(NCCCN1CCOCC1)c1ccc2c(c1)CNCC2 (as salt: hydrochloride) [compound 19, N-(3-morpholin-4-ylpropyl)-1,2,3,4-tetrahydroisoquinoline-7-sulfonamide] | 238 to 245 | –
CCN(CC)CCCNS(=O)(=O)c1ccc2c(c1)CN(CC1CC1)CC2 (as salt: oxalate) [compound 6, 2-(cyclopropylmethyl)-N-[3-(diethylamino)propyl]-1,2,3,4-tetrahydroisoquinoline-7-sulfonamide] | 98 to 103 | –
CCN(CC)CCCNS(=O)(=O)c1ccc2c(c1)CN(CC1CCCCC1)CC2 (as salt: oxalate) [compound 7, 2-(cyclohexylmethyl)-N-[3-(diethylamino)propyl]-1,2,3,4-tetrahydroisoquinoline-7-sulfonamide] | 144 to 147 | –
CCN(CC)CCCNS(=O)(=O)c1ccc2c(c1)CN(C(C)C)CC2 (as salt: oxalate) [compound 10, N-[3-(diethylamino)propyl]-2-isopropyl-1,2,3,4-tetrahydroisoquinoline-7-sulfonamide] | 54 to 59 | –
CCN(CC)CCCNS(=O)(=O)c1ccc2c(c1)CN(C1CCCCC1)CC2 (as salt: oxalate) [compound 14, 2-cyclohexyl-N-[3-(diethylamino)propyl]-1,2,3,4-tetrahydroisoquinoline-7-sulfonamide] | 55 to 60 | –
O=S(=O)(NCCCN1CCCC1)c1ccc2c(c1)CN(CC1CCCCC1)CC2 (as salt: oxalate) [compound 21, 2-(cyclohexylmethyl)-N-(3-pyrrolidin-1-ylpropyl)-1,2,3,4-tetrahydroisoquinoline-7-sulfonamide] | 130 to 141 | –
CC1CCCCN1CCCNS(=O)(=O)c1ccc2c(c1)CNCC2 (racemic) (as salt: hydrochloride) | 65 to 70 | –
CN1CCCC1CCNS(=O)(=O)c1ccc2c(c1)CN(CC1CCCCC1)CC2 (racemic) [compound 15, (+/−)-2-(cyclohexylmethyl)-N-[2-(1-methylpyrrolidin-2-yl)ethyl]-1,2,3,4-tetrahydroisoquinoline-7-sulfonamide] | – | Ki [1]: 0.3 nM; IC50 [2]: < 10 nM
CC(C)c1ccc(CN2CCc3ccc(S(=O)(=O)NCCC4CCCN4C)cc3C2)cc1 (racemic) [compound 24, (+/−)-2-(4-isopropylbenzyl)-N-[2-(1-methylpyrrolidin-2-yl)ethyl]-1,2,3,4-tetrahydroisoquinoline-7-sulfonamide] | – | decrease of food intake (food intake): 54%

The next lines start with results.

melting point [°C] | SMILES | also measured
244 to 249 | O=S(=O)(NCCCN1CCN(Cc2ccccc2)CC1)c1ccc2c(c1)CNCC2 (as salt: hydrochloride) [compound 17, N-[3-(4-benzylpiperazin-1-yl)propyl]-1,2,3,4-tetrahydroisoquinoline-7-sulfonamide] | –
91 to 95 | CCN(CC)CCCNS(=O)(=O)c1ccc2c(c1)CN(Cc1ccccc1)CC2 (as salt: oxalate) [compound 5, 2-benzyl-N-[3-(diethylamino)propyl]-1,2,3,4-tetrahydroisoquinoline-7-sulfonamide] | –
109 to 115 | CCN(CC)CCCNS(=O)(=O)c1ccc2c(c1)CN(Cc1cccs1)CC2 (as salt: oxalate) [compound 11, N-[3-(diethylamino)propyl]-2-(2-thienylmethyl)-1,2,3,4-tetrahydroisoquinoline-7-sulfonamide] | –
89 to 95 | CCN(CC)CCCNS(=O)(=O)c1ccc2c(c1)CN(Cc1ccsc1)CC2 (as salt: oxalate) [compound 12, N-[3-(diethylamino)propyl]-2-(3-thienylmethyl)-1,2,3,4-tetrahydroisoquinoline-7-sulfonamide] | –
99 to 104 | CN1CCc2ccc(S(=O)(=O)NCCCN3CC=CC3)cc2C1 (as salt: oxalate) [compound 16, N-[3-(2,5-dihydro-1H-pyrrol-1-yl)propyl]-2-methyl-1,2,3,4-tetrahydroisoquinoline-7-sulfonamide] | –
50 to 60 | CN1CCCC1CCNS(=O)(=O)c1ccc2c(c1)CN(CC1CC1)CC2 (racemic) (as salt: oxalate) [compound 22, (+/−)-2-(cyclopropylmethyl)-N-[2-(1-methylpyrrolidin-2-yl)ethyl]-1,2,3,4-tetrahydroisoquinoline-7-sulfonamide] | –
77 to 82 | CN1CCCC1CCNS(=O)(=O)c1ccc2c(c1)CN(Cc1ccccc1)CC2 (racemic) (as salt: oxalate) [compound 23, (+/−)-2-benzyl-N-[2-(1-methylpyrrolidin-2-yl)ethyl]-1,2,3,4-tetrahydroisoquinoline-7-sulfonamide] | –
103 to 110 | CC(C)c1ccc(CN2CCc3ccc(S(=O)(=O)NCCC4CCCN4C)cc3C2)cc1 (racemic) (as salt: oxalate) [compound 24, (+/−)-2-(4-isopropylbenzyl)-N-[2-(1-methylpyrrolidin-2-yl)ethyl]-1,2,3,4-tetrahydroisoquinoline-7-sulfonamide] | –
106 to 109 | CN1CCCC1CCNS(=O)(=O)c1ccc2c(c1)CN(Cc1ccc3c(c1)OCO3)CC2 (racemic) (as salt: oxalate) [compound 25, (+/−)-2-(1,3-benzodioxol-5-ylmethyl)-N-[2-(1-methylpyrrolidin-2-yl)ethyl]-1,2,3,4-tetrahydroisoquinoline-7-sulfonamide] | –
86 to 110 | CN1CCCC1CCNS(=O)(=O)c1ccc2c(c1)CN(Cc1ccc(Br)cc1)CC2 (racemic) (as salt: oxalate) [compound 30, (+/−)-2-(4-bromobenzyl)-N-[2-(1-methylpyrrolidin-2-yl)ethyl]-1,2,3,4-tetrahydroisoquinoline-7-sulfonamide] | –
87 to 90 | COc1ccc(OC)c(CN2CCc3ccc(S(=O)(=O)NCCC4CCCN4C)cc3C2)c1 (racemic) (as salt: oxalate) [compound 31, (+/−)-2-(2,5-dimethoxybenzyl)-N-[2-(1-methylpyrrolidin-2-yl)ethyl]-1,2,3,4-tetrahydroisoquinoline-7-sulfonamide] | –
66 to 77 | CCC(C)CN1CCc2ccc(S(=O)(=O)NCCC3CCCN3C)cc2C1 (racemic) (as salt: oxalate) [compound 32, (+/−)-2-(2-methylbutyl)-N-[2-(1-methylpyrrolidin-2-yl)ethyl]-1,2,3,4-tetrahydroisoquinoline-7-sulfonamide] | –
80 to 107 | COc1cccc(CN2CCc3ccc(S(=O)(=O)NCCC4CCCN4C)cc3C2)c1 (racemic) (as salt: oxalate) [compound 33, (+/−)-2-(3-methoxybenzyl)-N-[2-(1-methylpyrrolidin-2-yl)ethyl]-1,2,3,4-tetrahydroisoquinoline-7-sulfonamide] | –
121 to 125 | Cc1cc(C)cc(CN2CCc3ccc(S(=O)(=O)NCCC4CCCN4C)cc3C2)c1 (racemic) (as salt: oxalate) [compound 34, (+/−)-2-(3,5-dimethyl-benzyl)-N-[2-(1-methylpyrrolidin-2-yl)ethyl]-1,2,3,4-tetrahydroisoquinoline-7-sulfonamide] | –
